# According to ChEMBL document CHEMBL3751755, “Developing steroidal aromatase inhibitors-an effective armament to win the battle against breast cancer” (Eur J Med Chem, 2015):
# How the values were obtained:
# [1] = molecular target: T1, Aromatase (Homo sapiens, UniProt P11511); assay: Inhibition of aromatase (unknown origin); parameters: inhibition (INH): concentration or dose not given beside the values; details: for inhibition (INH): human
# T1 sequence (P11511 whole entry): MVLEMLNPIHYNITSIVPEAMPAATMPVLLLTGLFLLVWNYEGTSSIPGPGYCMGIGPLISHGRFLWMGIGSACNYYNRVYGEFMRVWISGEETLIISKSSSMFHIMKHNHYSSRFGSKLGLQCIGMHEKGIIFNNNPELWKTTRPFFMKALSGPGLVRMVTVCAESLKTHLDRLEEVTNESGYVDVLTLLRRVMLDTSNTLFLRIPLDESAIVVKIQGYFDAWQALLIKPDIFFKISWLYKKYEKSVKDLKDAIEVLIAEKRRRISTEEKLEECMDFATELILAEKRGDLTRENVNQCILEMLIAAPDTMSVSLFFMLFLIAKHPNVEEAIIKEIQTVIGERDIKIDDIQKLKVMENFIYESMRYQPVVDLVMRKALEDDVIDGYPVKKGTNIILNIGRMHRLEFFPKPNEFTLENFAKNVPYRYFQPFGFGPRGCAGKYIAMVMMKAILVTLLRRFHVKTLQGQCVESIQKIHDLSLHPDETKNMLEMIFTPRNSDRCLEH
# [2] = molecular target: T1, Aromatase
# [3] = molecular target: T1, Aromatase; assay: Competitive inhibition of human aromatase extracted from placental microsomes by Dixon plot analysis in presence of [1beta-3H]androstenedione
# [4] = molecular target: T1, Aromatase; remark: listed apart in the source
compound,measurement,setting,value
COC(=O)C1=C(C)NC(C)=C(C(=O)OC)C1C[C@H]1C[C@@H]2[C@H](CC[C@]3(C)C(=O)CC[C@@H]23)[C@@]2(C)C=CC(=O)C=C12,IC50,[1],10000 nM
CCSC1=C2CC[C@@H]3[C@H](CC[C@]4(C)C(=O)CC[C@@H]34)[C@@]2(C)CCC1=O,Ki,[2],36 nM
C[C@]12CCC(=O)C=C1[C@@H]1[C@H]([C@@H]3[C@@H]2CC[C@]2(C)C(=O)CC[C@@H]32)C1(F)F,Ki,[2],5 nM
C[C@]12CCC(=O)C=C1C[C@H](Cc1ccccc1)[C@@H]1[C@@H]2CC[C@]2(C)C(=O)CC[C@@H]12,Ki,[2],36 nM
CC(=O)[C@@]1(C)CC[C@H]2[C@@H](CCC3=C(O)C(=O)CC[C@@]32C)C1CC#N (stereo not given in full),inhibition (INH),[1],46.5%
C[C@]12CC[C@H]3[C@@H](CC[C@H]4CC(=O)C[C@H]5[C@@H](O)[C@]435)[C@@H]1CCC2=O,inhibition (INH),[1],40%
C[C@]12CC[C@H]3[C@@H](CCC4=CCCC[C@@]43CO)[C@@H]1CC[C@@H]2O,Ki,[2],170 nM
C[C@]12CCC(=O)C=C1C[C@H](CCc1ccccc1)[C@@H]1[C@@H]2CC[C@]2(C)C(=O)CC[C@@H]12,Ki,[2],36 nM
CC1(C)C[C@@]2(C)C(=C(O)C1=O)C(=O)C[C@@H]1[C@@H]2CC[C@]2(C)C(=O)CC[C@@H]12,Ki,[1],40 nM
CC(=O)O[C@H]1[C@@H]2[C@H](CC[C@]3(C)C(=O)CC[C@@H]23)[C@@]2(C)CCC(=O)C=C2[C@@H]1N=[N+]=[N-],IC50,[1],400 nM
C#C[C@H](OC(C)=O)[C@]12CCC(=O)C=C1C(=O)C[C@@H]1[C@@H]2CC[C@]2(C)C(=O)CC[C@@H]12,Ki,[2],67000 nM
C[C@]12C=CC(=O)C=C1C[C@@H](CCCc1ccc([N+](=O)[O-])cc1)[C@@H]1[C@@H]2CC[C@]2(C)C(=O)CC[C@@H]12,Ki,[2],7 nM
C[C@]12C=CC(=O)C=C1C[C@@H](CCc1ccccc1)[C@@H]1[C@@H]2CC[C@]2(C)C(=O)CC[C@@H]12,Ki,[2],7 nM
CC(=O)O[C@]12CCCCC1=CC(=O)[C@H]1[C@@H]3CCC(=O)[C@@]3(C)CC[C@@H]12,Ki,[3]; read-out: Ki(app),1100 nM
CC[C@]12CCC(=O)C=C1C=C[C@@H]1[C@@H]2CC[C@]2(C)C(=O)CC[C@@H]12,Ki,[3]; read-out: Ki,8.2 nM
C[C@]12CC[C@H]3[C@@H](CCC4=CCCC[C@@]43C(F)F)[C@@H]1CCC2=O,Ki,[2],170 nM
C[C@]12CCCC=C1[C@@H]1[C@H]([C@@H]3[C@@H]2CC[C@]2(C)C(=O)CC[C@@H]32)C1(F)F,Ki,[2],5 nM
CSC1=C2CC[C@@H]3[C@H](CC[C@]4(C)C(=O)CC[C@@H]34)[C@@]2(C)CCC1=O,Ki,[2],36 nM
C[C@]12CCC(=O)C(O)=C1C(=O)C[C@@H]1[C@@H]2CC[C@]2(C)C(=O)CC[C@@H]12,Ki,[1],42 nM
C[C@]12CCCC=C1CC[C@@H]1[C@@H]2CC[C@]2(C)C(=O)[C@H](Br)C[C@@H]12,Ki,[2],228 nM
C[C@]12CC[C@H]3[C@@H](CCC4=CC(=O)CC[C@@]43[C@H]3CN3)[C@@H]1CCC2=O,Ki,[1],3.4 nM
C[C@]12CC[C@H]3[C@@H](CCC4=CC(=O)CC[C@@]43[C@@H]3CN3)[C@@H]1CCC2=O,Ki,[1],3.4 nM
C[C@]12C=CC(=O)C=C1C[C@@H](Cc1ccccc1)[C@@H]1[C@@H]2CC[C@]2(C)C(=O)CC[C@@H]12,Ki,[2],7 nM
C[C@]12CC[C@H]3[C@@H]([C@H](Cc4ccccc4)CC4=CC(=O)CC[C@@]43C)[C@@H]1CC[C@@H]2O,Ki,[2],36 nM
CC(=O)SC1=C2CC[C@@H]3[C@H](CC[C@]4(C)C(=O)CC[C@@H]34)[C@@]2(C)CCC1=O,Ki,[2],36 nM
CCCSC1=C2CC[C@@H]3[C@H](CC[C@]4(C)C(=O)CC[C@@H]34)[C@@]2(C)CCC1=O,Ki,[2],36 nM
C[C@]12CCC(=O)C=C1C=C(CCc1ccccc1)[C@@H]1[C@@H]2CC[C@]2(C)C(=O)CC[C@@H]12,Ki,[2],60.9 nM
C[C@]12CC[C@H]3[C@@H](CCC4=CC(=O)CC[C@@]43[C@@H]3CN3)[C@@H]1CC[C@@H]2O,Ki,[1],3.4 nM
C[C@]12CCC(=O)C=C1C=C(c1ccccc1)[C@@H]1[C@@H]2CC[C@]2(C)C(=O)CC[C@@H]12,Ki,[2],1420 nM
C[C@]12C=CC(=O)C=C1C[C@@H](CCCc1ccccc1)[C@@H]1[C@@H]2CC[C@]2(C)C(=O)CC[C@@H]12,Ki,[2],7 nM
CC(=O)O[C@@H]1[C@@H]2CC(=O)C[C@@H]3CC[C@@H]4[C@H](CC[C@]5(C)C(=O)CC[C@@H]45)[C@@]312,inhibition (INH),[1],40%
C[C@]12CCC(=O)C=C1C[C@@H](CCc1ccccc1)[C@@H]1[C@@H]2CC[C@]2(C)C(=O)CC[C@@H]12,Ki,[2],13.1 nM
C[C@]12CCC(=O)C=C1C=C(Cc1ccccc1)[C@@H]1[C@@H]2CC[C@]2(C)C(=O)CC[C@@H]12,Ki,[2],60.9 nM
C[C@]12C=CC(=O)C=C1C[C@@H](CCc1ccc([N+](=O)[O-])cc1)[C@@H]1[C@@H]2CC[C@]2(C)C(=O)CC[C@@H]12,Ki,[2],7 nM
C[C@]12CC[C@H]3[C@@H](CCC4=CC(=O)CC[C@@]43[C@H]3CN3)[C@@H]1CC[C@@H]2O,Ki,[1],3.4 nM
C[C@]12CC[C@H]3[C@@H](CC[C@H]4C[C@@]5(O)C[C@H]6[C@H](O5)[C@]436)[C@@H]1CCC2=O,inhibition (INH),[1],40%
C[C@]12C=CC(=O)C=C1C[C@@H](CCc1ccc(N)cc1)[C@@H]1[C@@H]2CC[C@]2(C)C(=O)CC[C@@H]12,Ki,[2],7 nM
C[C@]12CCC(=O)C=C1C[C@@H](Cc1ccccc1)[C@@H]1[C@@H]2CC[C@]2(C)C(=O)CC[C@@H]12,Ki,[2],18.9 nM
C[C@]12CCC(=O)C(OCc3ccccc3)=C1CC[C@@H]1[C@@H]2CC[C@]2(C)C(=O)CC[C@@H]12,Ki,[2],38 nM
CCCCCC[C@@H]1C[C@@H]2[C@H](CC[C@]3(C)C(=O)CC[C@@H]23)[C@@]2(C)CCC(=O)C=C12,Ki,[4],2.8 nM
C[C@]12CCC(=O)C=C1[C@@H](c1ccc(OS(N)(=O)=O)cc1)C[C@@H]1[C@@H]2CC[C@]2(C)C(=O)CC[C@@H]12,Ki,[4],39 nM
C[C@]12CCC(=O)C=C1[C@@H](CCc1ccccc1)C[C@@H]1[C@@H]2CC[C@]2(C)C(=O)CC[C@@H]12,Ki,[4],16 nM
CCCCCC(=O)O[C@H]1C[C@@H]2[C@H](CC[C@]3(C)C(=O)CC[C@@H]23)[C@@]2(C)CCC(=O)C=C12,Ki,[4],7 nM
C#C[C@@H](OC(C)=O)[C@@]12CCC(=O)C=C1C(=O)C[C@@H]1[C@@H]2CC[C@]2(C)C(=O)CC[C@@H]12,Ki,[2],75000 nM
Cc1cc2c(cc1O)CC[C@@H]1[C@@H]2CC[C@]2(C)C(=O)CC[C@@H]12,Ki,[4],100 nM
C[C@]12CC[C@H]3[C@@H]([C@H]4[C@@H](C5=CCCC[C@@]53C)C4(F)F)[C@@H]1CC[C@@H]2O,Ki,[2],5 nM
C[C@]12CCCC=C1CC[C@@H]1[C@@H]2CC[C@]2(C)C(=O)[C@@H](Br)C[C@@H]12,Ki,[2],455 nM
CC1(C)C[C@@]2(C)C(=CC1=O)C(=O)C[C@@H]1[C@@H]2CC[C@]2(C)C(=O)CC[C@@H]12,Ki,[1],25 nM
C[C@]12C=CC(=O)C=C1C(CCc1ccccc1)=C[C@@H]1[C@@H]2CC[C@]2(C)C(=O)CC[C@@H]12,Ki,[4],8.5 nM
C[C@]12CC[C@@H]3c4ccc(O)cc4[C@@H](Cc4ccccc4)C[C@H]3[C@@H]1CC[C@@H]2O,Ki,[4],100 nM
